Source: the OPERA property sets (Mansouri et al. 2018)

conditions: not given

SMILES	melting point	ready biodegradability	boiling point	log10 Koc (L/kg)	log10 vapour pressure (mmHg)	log10 Henry constant (atm·m³/mol)	log10 Koa	log10 biodegradation half-life (days)
C=C1C2CCC3C(CCC4C35CCC[C@]4(C)CN3CCO[C@H]35)(C2)[C@H]1O (stereo partly specified)	120 °C							
Ic1cccc(-c2ccccc2)c1	26.5 °C							
Oc1ccc(C2(c3ccc(O)cc3)CCCCC2)cc1		not readily biodegradable						
N[C@H](CCS)C(=O)O (racemic)	226 °C							
Cc1ccc(C)c(C(=O)O)c1	132 °C							
O=C[O-].[Na+]	253 °C							
CCCCCCCC/C=C\CCCCCCCCN	246 °C							
Cc1cccc(C(N)=O)c1	95 °C							
B1Oc2ccccc2O1	12 °C							
NS(=O)(=O)c1ccc(S(=O)(=O)CCCO)c(F)c1	130 °C							
Cc1cc(Cl)ccc1OCC(=O)O	120 °C	not readily biodegradable	287 °C	1.73	-5.23			
CCC1(C2=CCCCC2)C(=O)NC(=O)NC1=O	173 °C							
O=C(O)C=CC=Cc1ccc2c(c1)OCO2	215 °C							
O=[N+]([O-])c1cc([N+](=O)[O-])c(Cl)c(C(F)(F)F)c1	63 °C							
CCCCCCCCCCOCCCCCCCCCC		readily biodegradable						
O=c1n(CCO)c(=O)n(CCO)c(=O)n1CCO		not readily biodegradable						
COc1ccc(CO)cc1OC			298 °C					
C=CCN(CC=C)CC=C		not readily biodegradable	156 °C		0.561			
Cc1cc(Cl)ccc1O	51 °C	not readily biodegradable	209 °C		-1.62			
Cc1ccc(N=C=O)cc1N=C=O	20.5 °C	not readily biodegradable	251 °C		-2.1			
Oc1ccc(Oc2ccccc2)cc1	84 °C							
Clc1ccc(-c2cccc(Cl)c2Cl)cc1						-3.85		
CCCC#CCCCCCC	-74.7 °C		198 °C					
O=C(C(Cl)(Cl)Cl)C(Cl)(Cl)Cl	-2 °C		203 °C					
O=Cc1cc(Br)cc(Br)c1O	86 °C							

SMILES	melting point	ready biodegradability	boiling point	log10 Koc (L/kg)	log10 vapour pressure (mmHg)	log10 Henry constant (atm·m³/mol)	log10 Koa	log10 biodegradation half-life (days)
COCC(=O)O	7.7 °C		204 °C		-0.839			
N#CCNCC#N	70 °C				-2.47			
OCCCCCCCCCCCCO	81.3 °C							
COC1=CC(=O)C[C@@H](C)[C@]12Oc1c(Cl)c(OC)cc(OC)c1C2=O	220 °C							
CC(C)(C)Br	-16.2 °C		73.3 °C		2.13			
C=CCc1cc(OC)c(OC)c(OC)c1OC	25 °C							
CC(=O)NC12CC3CC(CC(C3)C1)C2	148 °C							
O=[N+]([O-])c1ccc(S(=O)(=O)O)c([N+](=O)[O-])c1	108 °C							
CC1(C)C(=O)[C@@]2(C)CC[C@@H]1C2			193 °C					
O=C(OC(=O)C(F)(F)C(F)(F)F)C(F)(F)C(F)(F)F			73 °C					
NS(=O)(=O)c1cc2c(cc1Cl)NC(C1CC3C=CC1C3)NS2(=O)=O (stereo unspecified)	234 °C							
Cc1cnc2c(C(=O)O)c(Cl)ccc2c1	244 °C							
CCCCCCC=NO	57.5 °C		195 °C					
c1ccc([As](c2ccccc2)c2ccccc2)cc1	61 °C		360 °C		-4.3			
COC(=O)Nc1cccc(C)c1		readily biodegradable						
FC(F)(Cl)C(Cl)Cl			71.9 °C					
O=C1C=CCO1	4.5 °C							
[O-][n+]1cccc(O)c1	191 °C							
CC(=O)c1cccc(Br)c1	7.5 °C							
C(=NC1CCCCC1)=NC1CCCCC1	34.5 °C	not readily biodegradable						
OCC1CCC(CO)CC1 (stereo unspecified)	51 °C		285 °C		-3.51			
Cl.c1ccc(CC2=NCCN2)cc1	175 °C							
O=C(F)c1ccccc1	-28 °C		154 °C					
CCCC(=O)OC(=O)CCC	-75 °C		200 °C		-0.548			
O=[N+]([O-])c1cc(Cl)ccc1O	88.5 °C	not readily biodegradable						

SMILES	melting point	ready biodegradability	boiling point	log10 Koc (L/kg)	log10 vapour pressure (mmHg)	log10 Henry constant (atm·m³/mol)	log10 Koa	log10 biodegradation half-life (days)
O=C(C=Cc1ccccc1)c1ccccc1O	90 °C							
COC(=O)C(C)=O			136 °C					
O=CN1CCOCC1	21 °C		239 °C					
CS(=O)(=O)O	20 °C	readily biodegradable			-3.37			
CCc1cc(C)cc(O)c1	51.6 °C		236 °C		-2.06			
CCOc1ccc(Cl)cc1	21 °C		213 °C					
CC(=O)OC1CCCCC1	-65 °C		173 °C		1.03			
Cc1cc(C)c2ccccc2c1C	55.5 °C							
C/C=C(/C)C(=O)O[C@H]1CCN2CC=C(COC(=O)[C@](O)([C@H](C)OC)C(C)(C)O)[C@H]12	95 °C							
O=C(N[C@@H](Cc1ccccc1)C(=O)O)OCc1ccccc1	88.5 °C							
CCCCN(CCCC)c1ccccc1	-32.2 °C		275 °C					
CC1CC(CC2CCC(N)C(C)C2)CCC1N (stereo unspecified)		not readily biodegradable						
CS(=O)(=O)c1ccc(-c2cn3ccccc3n2)cc1	243 °C							
Clc1cc2ccc(Cl)c(Cl)c2cc1Cl							8.34	
CCCCCCCCCCCCCCCCCCCCCCCCCCCCCCCCCCCCCCCCCCCC	87.5 °C	readily biodegradable	548 °C					
Cc1cc(N)ncn1	197 °C							
O=c1ccc2cc3ccoc3c(O)c2o1	252 °C							
C1=Cc2cccc3cccc1c23	92.5 °C	readily biodegradable	280 °C	3.75	-2.18	-3.94		1.58
Oc1cccc(Cl)c1O	48.5 °C							
CCC(=O)N(C)C	-45 °C		174 °C					
c1ccc(-c2ccncc2)cc1	77.5 °C		281 °C					
COCOC	-105 °C		42 °C		2.6	-3.76		
C=COCC(F)(F)F			42.5 °C					
CC1(C)C(C=C(Cl)Cl)C1C(=O)OC(C#N)c1ccc(F)c(Oc2ccccc2)c1 (stereo unspecified)	60 °C			5	-9.82			
O=P(OC(CCl)CCl)(OC(CCl)CCl)OC(CCl)CCl	27 °C	not readily biodegradable						

SMILES	melting point	ready biodegradability	boiling point	log10 Koc (L/kg)	log10 vapour pressure (mmHg)	log10 Henry constant (atm·m³/mol)	log10 Koa	log10 biodegradation half-life (days)
FC(F)(F)SSC(F)(F)F			34.6 °C					
CC(C)(C)[N+](=O)[O-]	26.2 °C		127 °C		1.08			
CCOc1cc(C=O)ccc1O	77.5 °C	readily biodegradable	294 °C		-4.98			
Oc1ccc2c(c1)CCCC2	57 °C		276 °C					
O=C(O)CCCCCCCCC(=O)O	131 °C	readily biodegradable			-7.26			
Cc1ccc2c(C)ccc(C(C)C)c2c1			294 °C					
CCCCCCC#N			183 °C					
O=[N+]([O-])c1ccc2ncccc2c1	154 °C							
O=C1CCCCC1C1CCCCC1 (stereo unspecified)	-32 °C		264 °C					
CC(C)(C)c1ccc(Cl)cc1			213 °C					
C[C@@H](N)c1ccccc1		not readily biodegradable						
CC=C(C)Cl	-19 °C		64.5 °C					
O=C(O)[C@@H]1CCCN1C(=O)OCc1ccccc1	77 °C							
O=[N+]([O-])c1c(Cl)cccc1Cl	72.5 °C							
CCCCCCCCCCc1ccc(N)cc1	25 °C							
C=CC(Cl)Cl			84.4 °C		1.85			
CCNc1nc(NC(C)C)nc(SC)n1	88 °C	not readily biodegradable	345 °C	2.59	-5.56			
C=C(C)[C@@H]1CC[C@@H](C)[C@@H](O)C1			224 °C					
FC(F)(Br)C(F)(F)C(F)(F)C(F)(F)C(F)(F)C(F)(F)Br			142 °C					
Cc1cccc(C)c1NC(=O)c1ccc[nH]c1=O	266 °C							
O=C(c1ccc(Cl)cc1)c1ccccc1Cl	67 °C							
C1CN(CCN2CCOCC2)CCO1	75 °C		285 °C					
CCC(C)(O)CCC(C)C (stereo unspecified)			173 °C					
COc1ccc([N+](=O)[O-])c(N)c1	131 °C							
COc1cccc2c1C(=O)c1c(O)c3c(c(O)c1C2=O)C[C@@](O)(C(C)=O)C[C@@H]3O[C@H]1C[C@H](N)[C@H](O)[C@H](C)O1	208 °C							

SMILES	melting point	ready biodegradability	boiling point	log10 Koc (L/kg)	log10 vapour pressure (mmHg)	log10 Henry constant (atm·m³/mol)	log10 Koa	log10 biodegradation half-life (days)
CCCCOC(N)=O	53 °C							
c1ccc(COc2ccc3[nH]ccc3c2)cc1	102 °C							
CC(C)(C)N(CCO)CCO	42 °C							
CC(C)(C)c1cc(C(=O)O)cc(C(C)(C)C)c1O	208 °C							
C[Si](C)(Cl)CCl			116 °C					
Clc1ccc(Oc2ccc(Cl)cc2Cl)cc1					-3.82			
CC(C)OC(=O)Cl		not readily biodegradable	105 °C		1.57			
CCOP(=O)(N=C1SCS1)OCC					-5.19			
Cc1ccco1	-87.5 °C		65 °C		2.19			
FC(Cl)C(F)(F)C(F)(F)Cl (stereo unspecified)			56.1 °C		2.46			
ClC1=C(Cl)C2(Cl)C3C4OC4C(Cl)C3C1(Cl)C2(Cl)Cl (stereo unspecified)	160 °C			4.02	-4.71	-4.68		
CCCCN(CCCC)SN(C)C(=O)Oc1cccc2c1OC(C)(C)C2					-6.51			
Cc1cc(C(C)(C)C)ccc1O	27.5 °C		237 °C		-1.55			
CCCCN(CCO)CCCC	-75 °C	not readily biodegradable	229 °C					
ClCCCCCCCCCCCl	15.6 °C							
CC(=O)Oc1c(C(C)(C)C)cc([N+](=O)[O-])c(C)c1[N+](=O)[O-]	86.5 °C							
CCC(CC)COC(C)=O			162 °C					
O=C=Nc1ccccc1			163 °C		0.41			
COc1cccc(C)c1	-47 °C		176 °C					
C=CC(OC)OC			88 °C					
Cc1ccc(C)c2ccccc12	7.6 °C		268 °C		-1.67			1.18
COc1ccccc1NC(=O)CC(C)=O	86 °C							
O=c1sc2ccccc2c(O)c1C1CC(c2ccc(-c3ccc(Br)cc3)cc2)Cc2ccccc21 (stereo unspecified)	234 °C							

same assay, conditions: fish

SMILES	log10 BCF	log10 biotransformation half-life (days)
O=c1n(CCO)c(=O)n(CCO)c(=O)n1CCO	0.2	
C=CCN(CC=C)CC=C	0.55	
Cc1cc(Cl)ccc1O	1.33	-0.83
Clc1ccc(-c2cccc(Cl)c2Cl)cc1		2.16
C1=Cc2cccc3cccc1c23	2.43	0.52
O=P(OC(CCl)CCl)(OC(CCl)CCl)OC(CCl)CCl	1.08	-0.52
Clc1ccc(Oc2ccc(Cl)cc2Cl)cc1		1.72
ClC1=C(Cl)C2(Cl)C3C4OC4C(Cl)C3C1(Cl)C2(Cl)Cl (stereo unspecified)		2.2
